Measured values taken from patent US12173088B2, “Anti-microbial peptides” (priority 2018, dated 2024).
Values after ≈ are worked out from the molar mass of the structure shown. “Also recorded” adds a separate entry of the source. Where two headings read alike, the source gives them in different places. Ends that are not written are not given here.

Assays:
E. coli E423-17 = test: microbe, parasite or virus in culture; type: cell-based, Escherichia coli; settings: Escherichia coli, E42317; Table 14; read-out: MIC E. coli E423-17
Source text: (§1) The bacterial strains used include the Gram-positive strains Staphylococcus aureus USA300 LAC, S. epidermidis 1457, and Bacillus subtilis 168, as well as the Gram-negative isolates Escherichia coli K12 and Acinetobacter baumannii B2367-12. Additional, drug resistance strains include Gram-positive Enterococcus faecium V286-17 (VRE) and S. aureus M838-17 (MRSA) and Gram-negative E. coli E423-17, E. coli E416-17 (ampC), and P. aeruginosa E411-17. Bacteria were cultivated in tryptic soy broth (TSB) (BD Bioscience, MD).
(§2) The antibacterial activity of peptides was evaluated using a standard broth microdilution protocol with minor modifications as described (Mishra, et al. (2012) J. Am. Chem. Soc., 134:12426-12429). In brief, logarithmic phase bacterial cultures (i.e., optical density at 600 nm≈0.5) were diluted to OD600 0.001 and partitioned into a 96-well polystyrene microplate at 90 μL per well. After treatment with 10 μL of peptide solutions two fold diluted to various concentrations, microplates were incubated at 37° C. overnight and read on a ChroMate® 4300 Microplate Reader at 630 nm (GMI, Ramsey, MN). […] To study the influence of medium conditions on the antimicrobial activity of peptides against S. aureus USA300, up to 200 mM sodium chloride (NaCl), 2 mM of calcium chloride, 5-10% of human serum, mouse plasma, fluid, or supernatants of tissue homogenates were included into the assays.
(§3) The bacterial strains used include the Gram-positive bacteria methicillin-resistant Staphylococcus aureus USA300, Enterococcus faecium V286-17 (VRE), S. aureus M838-17 (MRSA) and Gram-negative bacteria E. coli E423-17, E416-7 (ampC), P. aeruginosa E411-17, PA01, K. pneumoniae E406-17, ATCC13883, and A. baumannii B26-16. Bacteria were cultivated in tryptic soy broth (TSB) from BD Bioscience.
(§4) The antibacterial activity of peptides was evaluated using a standard broth microdilution protocol with minor modifications (Mishra, et al. (2017) Acta Biomater., 49:316-328). In brief, logarithmic phase bacterial cultures (i.e., optical density at 600 nm≈0.5) were diluted to 0.001 OD and aliquoted 90 μL per well into a 96-well polystyrene microplate. Added 10 μL peptides per well with various concentrations, plates were incubated at 37° C., overnight. Post incubation the plates are read at 630 nm using a ChroMate® Microplate Reader (GMI). […] To study the influence of medium conditions on the antimicrobial activity of peptides against S. aureus USA300 at different pHs (6.8, 7.2, and 8.0), 150 mM sodium chloride (NaCl), 5-10% of human serum, mouse plasma, and peritoneal fluid were included into the assays.

S. aureus USA300 [1] = type: in vivo, Staphylococcus aureus; settings: different tissues; single i.p. injection; positive control
Experimental: Female C57BL/6 mice (6 weeks old) were purchased from Charles River. After environment adaptation, mice were induced neutropenic by administering two doses of cyclophosphamide on day 1 (150 mg/kg) and Day 4 (100 mg/kg). This cyclophosphamide administration was skipped for experiments using non-neutropenic mice (i.e., normal mice). On day 5, mice were infected with S. aureus USA300 LAC (˜2×10^6 CFU per mouse) via intraperitoneal injection (i.p.). For the treatment groups, mice were i.p. treated 2 hours post infection with peptides at a single dose of 5 mg/kg. Both positive and negative controls were included. At the end of the experiments, all animals were sacrificed according to institutional guidelines. Organs, including spleen, lung, kidney, and liver, were harvested, weighed, placed in sterile PBS and stored on ice. Harvested animal organs were subsequently homogenized using homogenizer (Omni, Kennesaw, GA). Proper dilutions, especially for untreated control groups, were made to get countable colonies. Blood agar plates were then incubated overnight at 37° C. The bacteria grown on plates were enumerated and plotted using the Graph pad Prism software.
Female C57BL/6 or Balb/c mice (6 weeks old) were purchased from Charles River. The mice were induced neutropenic by administering two doses of cyclophosphamide on day 1 (150 mg/kg) and Day 4 (100 mg/kg). On day 5, mice were infected with S. aureus USA300 (˜2×10^6 CFU per mouse) or K. pneumoniae E406-17 (˜5×10^5 CFU per mouse) via intraperitoneal injection (i.p.). For the treatment groups, mice were i.p. or intravenous (i.v.) treated 2 hours post infection with peptides at a single dose of 5, 10, or 15 mg/kg. Both positive and negative controls are used. At the end of the experiments, all animals were sacrificed according to institutional guidelines. […] The CFU of each mouse was plotted as an individual point and error bars represent the deviation within the experimental group. * p<0.05 ** p<0.01, ***p<0.001 and NS represents no significance (determined by Mann-Whitney test).

A. baumannii B26-16 = test: microbe, parasite or virus in culture; type: cell-based, Acinetobacter baumannii; settings: Acinetobacter baumannii, B2616; Table 14; read-out: MIC A. baumannii B26-16
Experimental: as §3, §4

S. aureus M838-17 (MRSA) = test: microbe, parasite or virus in culture; type: cell-based, Staphylococcus aureus; settings: Staphylococcus aureus, MRSA; Table 7; by weight; read-out: MIC S. aureus M838-17 (MRSA)
In short: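 Peptides were serially diluted two-fold against bacteria grown in tryptic soy broth to log phase (OD600 ≈0.5), then seeded at OD600 0.001. Plates were held overnight at 37° C and read at 630 nm. USA300 was also tested at pH 6.8, 7.2 and 8.0, with 150 mM NaCl or 5-10% serum, plasma or peritoneal fluid.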

S. aureus USA300 [2] = test: microbe, parasite or virus in culture; type: cell-based, Staphylococcus aureus; settings: Staphylococcus aureus, MRSA / USA300; Table 14; read-out: MIC S. aureus USA300 (MRSA)
In short: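 Broth microdilution: log-phase cultures in tryptic soy broth diluted to OD600 0.001, exposed to two-fold diluted peptides at 37° C overnight, growth read at 630 nm. Medium effects on S. aureus USA300 tested with up to 200 mM NaCl, 2 mM CaCl2, 5-10% human serum, mouse plasma, fluids or tissue homogenate supernatants.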

S. aureus USA300 [3] = test: Propidium iodide membrane permeation; type: cell-based, Staphylococcus aureus
Experimental: The membrane permeation experiment was performed as described with minor modifications (Wang, et al. (2005) J. Biol. Chem., 280:5803-5811). Serially diluted 10× peptides (10 μL each well) were created in 96-well microtiter plates. Propidium iodide (2 μL) at a fixed concentration of 20 μM were added to each well followed by 88 μL of the S. aureus USA300 culture (a final OD600˜0.1 in TSB media). The plate was incubated at 37° C. with continuous shaking at 100 rpm in a FLUOstar® Omega (BMG LABTECH, Cary, NC) microplate reader. The fluorescence from the plate was read every 5 minutes for a total duration of 2 hours with an excitation and emission wavelengths of 584 nm and 620 nm, respectively. Plots were made using average values of duplicated experiments with MARS software.
The experiment was performed as described previously with minor modifications (Mishra, et al. (2017) Acta Biomater., 49:316-328). Serially diluted 10× peptides (10 μL each well) were created in 96-well microtiter plates. Propidium iodide (2 μL) at a fixed concentration of 20 μM were added to each well followed by 88 μL of the S. aureus USA300 culture (a final OD600˜0.1 in TSB media or PBS). The plate was incubated at 37° C. with continuous shaking at 100 rpm in a FLUOstar® Omega (BMG LABTECH) microplate reader. The samples fluorescence was read at every 5 minutes for 24 cycles with an excitation and emission wavelengths of 584 nm and 620 nm, respectively. Plots generated using average values from the experiments using GraphPad Prism.

E. faecium V286-17 (VRE) = test: microbe, parasite or virus in culture; type: cell-based, Enterococcus faecium; settings: Enterococcus faecium, VRE, read-out: MIC E. faecium V286-17 (VRE)
Source text: as §1, §2, §3, §4

K. pneumoniae E406-17 = test: microbe, parasite or virus in culture; type: cell-based, Klebsiella pneumoniae; settings: Klebsiella pneumoniae, E40617; Table 14; read-out: MIC K. pneumoniae E406-17
Experimental: as §2, §3, §4

P. aeruginosa E411-17 = test: microbe, parasite or virus in culture; type: cell-based, Pseudomonas aeruginosa; settings: Pseudomonas aeruginosa, E41117; Table 14; read-out: MIC P. aeruginosa E411-17
Source text: as §1, §2, §3, §4

[4] = literature; cited from earlier work

In the case of CCCCCCCCCC(=O)N[C@@H](Cc1c[nH]c2ccccc12)C(=O)N[C@H](CC(N)=O)C(=O)N[C@@H](CC(=O)O)C(=O)N[C@@H]1C(=O)NCC(=O)N[C@@H](CCCN)C(=O)N[C@@H](CC(=O)O)C(=O)N[C@H](C)C(=O)N[C@@H](CC(=O)O)C(=O)NCC(=O)N[C@H](CO)C(=O)N[C@@H]([C@H](C)CC(=O)O)C(=O)N[C@@H](CC(=O)c2ccccc2N)C(=O)O[C@@H]1C [Daptomycin], the MIC (E. coli E423-17) is reported as greater than 8 µM, the “Decrease in bacterial burden” value (S. aureus USA300 [1]) is reported as 1-4 logs and the MIC (A. baumannii B26-16) is reported as greater than 8 µM. For the same compound, the MIC (S. aureus M838-17 (MRSA)) was 0.78 µM (≈ 1.26 µg/mL), the MIC (S. aureus USA300 [2]) was 4 µM (≈ 6.48 µg/mL) and the “Propidium iodide membrane permeation” value (S. aureus USA300 [3]) was “fluorescence increase; also recorded: permeated bacterial membranes”. The MIC (E. faecium V286-17 (VRE); Table 7) was 3.1 µM (≈ 5.02 µg/mL), the MIC (E. faecium V286-17 (VRE); Table 14) was 4 µM (≈ 6.48 µg/mL) and the MIC (K. pneumoniae E406-17) was greater than 8 µM. The MIC (P. aeruginosa E411-17) was greater than 8 µM.
Work on CO[C@H]1/C=C/O[C@@]2(C)Oc3c(C)c(O)c4c(O)c(cc(O)c4c3C2=O)NC(=O)/C(C)=C\C=C\[C@H](C)[C@H](O)[C@@H](C)[C@@H](O)[C@@H](C)[C@H](OC(C)=O)[C@@H]1C [Rifamycin, reference compound] yielded an MIC (E. coli E423-17) greater than 8 µM, an MIC (A. baumannii B26-16) greater than 8 µM and an MIC (S. aureus M838-17 (MRSA)) of 1.56 µM (≈ 1.09 µg/mL). The MIC (S. aureus USA300 [2]) was 0.25 µM (≈ 0.174 µg/mL), the “Propidium iodide membrane permeation” value (S. aureus USA300 [3]) was “failed to permeate” and the MIC (E. faecium V286-17 (VRE); Table 7) was 12.5 µM (≈ 8.72 µg/mL). The MIC (E. faecium V286-17 (VRE); Table 14) was greater than 8 µM, the MIC (K. pneumoniae E406-17) was greater than 8 µM and the MIC (P. aeruginosa E411-17) was greater than 8 µM.
In the case of “ALWMTLLKKVLKAAAK (not fully specified (C-terminus)) [DS4(1-16)]”, the “In vivo outcome” value [4] is given as “failure”.
For “GIGKFLKKAKKFGKAFVKILKK (not fully specified (C-terminus)) [MSI-78]”, the “In vivo outcome” value [4] is listed as “failure”.
For “RPDKPRPYLPRPRPPRPVR (not fully specified (C-terminus)) [Peptide A3-APO]”, the “In vivo outcome” value [4] is given as “showed in vivo efficacy”.
